In the NIST ThermoML archive (doi:10.1016/j.tca.2011.08.002):
± gives the expanded uncertainty stated by the source.

Legend:
[1] = refractive index (Na D-line) (dimensionless); xn = mol fraction of the nth substance listed; conditions: 101 kPa, Liquid, Standard Abbe refractometry, x1 = 1
[2] = xn = mol fraction of the nth substance listed; conditions: 101 kPa, Liquid, Vibrating tube method, x1 = 1
[3] = refractive index (Na D-line) (dimensionless); conditions: 101.33 kPa, Liquid, Standard Abbe refractometry
[4] = 101 kPa, Liquid, Vibrating tube method

CC(C)(C)O [2-methylpropan-2-ol] + C1CCC(NC2CCCCC2)CC1
refractive index ([1]; 303.15 K): 1.38222 ± 0.00035
refractive index ([1]; 308.15 K): 1.37947 ± 0.00035
refractive index ([1]; 313.15 K): 1.37667 ± 0.00035
refractive index ([1]; 318.15 K): 1.37384 ± 0.00035
refractive index ([1]; 323.15 K): 1.37097 ± 0.00035
mass density ([2]; 303.15 K): 775.412 ± 0.14 kg/m3
mass density ([2]; 308.15 K): 770.193 ± 0.15 kg/m3
mass density ([2]; 313.15 K): 764.884 ± 0.15 kg/m3
mass density ([2]; 318.15 K): 759.488 ± 0.15 kg/m3
mass density ([2]; 323.15 K): 754.015 ± 0.15 kg/m3

CCC(C)O (centres undefined) [butan-2-ol] + C1CCC(NC2CCCCC2)CC1
refractive index ([1]; 288.15 K): 1.39951 ± 0.0004
refractive index ([1]; 293.15 K): 1.39736 ± 0.0004
refractive index ([1]; 298.15 K): 1.39515 ± 0.0004
refractive index ([1]; 303.15 K): 1.39293 ± 0.0004
refractive index ([1]; 308.15 K): 1.39064 ± 0.0004
refractive index ([1]; 313.15 K): 1.38832 ± 0.0004
refractive index ([1]; 318.15 K): 1.38596 ± 0.0004
refractive index ([1]; 323.15 K): 1.38352 ± 0.0004
mass density ([2]; 288.15 K): 810.689 ± 0.24 kg/m3
mass density ([2]; 293.15 K): 806.646 ± 0.24 kg/m3
mass density ([2]; 298.15 K): 802.528 ± 0.24 kg/m3
mass density ([2]; 303.15 K): 798.326 ± 0.24 kg/m3
mass density ([2]; 308.15 K): 794.03 ± 0.24 kg/m3
mass density ([2]; 313.15 K): 789.632 ± 0.24 kg/m3
mass density ([2]; 318.15 K): 785.117 ± 0.24 kg/m3
mass density ([2]; 323.15 K): 780.515 ± 0.24 kg/m3

CCCCO [butan-1-ol] + C1CCC(NC2CCCCC2)CC1
refractive index ([1]; 288.15 K): 1.40135 ± 0.00036
refractive index ([1]; 293.15 K): 1.39932 ± 0.00036
refractive index ([1]; 298.15 K): 1.3973 ± 0.00036
refractive index ([1]; 303.15 K): 1.39523 ± 0.00036
refractive index ([1]; 308.15 K): 1.39318 ± 0.00036
refractive index ([1]; 313.15 K): 1.3911 ± 0.00036
refractive index ([1]; 318.15 K): 1.38901 ± 0.00036
refractive index ([1]; 323.15 K): 1.38688 ± 0.00036
mass density ([2]; 288.15 K): 813.373 ± 0.14 kg/m3
mass density ([2]; 293.15 K): 809.573 ± 0.14 kg/m3
mass density ([2]; 298.15 K): 805.762 ± 0.15 kg/m3
mass density ([2]; 303.15 K): 801.923 ± 0.15 kg/m3
mass density ([2]; 308.15 K): 798.053 ± 0.15 kg/m3
mass density ([2]; 313.15 K): 794.147 ± 0.15 kg/m3
mass density ([2]; 318.15 K): 790.231 ± 0.15 kg/m3
mass density ([2]; 323.15 K): 786.238 ± 0.15 kg/m3

CCCCCO [pentan-1-ol]
refractive index ([3]; 288.15 K): 1.41192 ± 0.0004
refractive index ([3]; 293.15 K): 1.40994 ± 0.0004
refractive index ([3]; 298.15 K): 1.40796 ± 0.0004
refractive index ([3]; 303.15 K): 1.40595 ± 0.0004
refractive index ([3]; 308.15 K): 1.40388 ± 0.0004
refractive index ([3]; 313.15 K): 1.40189 ± 0.0004
refractive index ([3]; 318.15 K): 1.39987 ± 0.0004
refractive index ([3]; 323.15 K): 1.39776 ± 0.0004
mass density ([4]; 288.15 K): 818.282 ± 0.24 kg/m3
mass density ([4]; 293.15 K): 814.635 ± 0.24 kg/m3
mass density ([4]; 298.15 K): 810.968 ± 0.24 kg/m3
mass density ([4]; 303.15 K): 807.278 ± 0.24 kg/m3
mass density ([4]; 308.15 K): 803.558 ± 0.24 kg/m3
mass density ([4]; 313.15 K): 799.817 ± 0.24 kg/m3
mass density ([4]; 318.15 K): 796.001 ± 0.24 kg/m3
mass density ([4]; 323.15 K): 792.166 ± 0.24 kg/m3

CCCCO [butan-1-ol]
refractive index ([3]; 288.15 K): 1.40135 ± 0.00036
refractive index ([3]; 293.15 K): 1.39932 ± 0.00036
refractive index ([3]; 298.15 K): 1.3973 ± 0.00036
refractive index ([3]; 303.15 K): 1.39523 ± 0.00036
refractive index ([3]; 308.15 K): 1.39318 ± 0.00036
refractive index ([3]; 313.15 K): 1.3911 ± 0.00036
refractive index ([3]; 318.15 K): 1.38901 ± 0.00036
refractive index ([3]; 323.15 K): 1.38688 ± 0.00036
mass density ([4]; 288.15 K): 813.373 ± 0.14 kg/m3
mass density ([4]; 293.15 K): 809.573 ± 0.14 kg/m3
mass density ([4]; 298.15 K): 805.762 ± 0.15 kg/m3
mass density ([4]; 303.15 K): 801.923 ± 0.15 kg/m3
mass density ([4]; 308.15 K): 798.053 ± 0.15 kg/m3
mass density ([4]; 313.15 K): 794.147 ± 0.15 kg/m3
mass density ([4]; 318.15 K): 790.231 ± 0.15 kg/m3
mass density ([4]; 323.15 K): 786.238 ± 0.15 kg/m3

CCCCCO [pentan-1-ol] + C1CCC(NC2CCCCC2)CC1
refractive index ([1]; 288.15 K): 1.41192 ± 0.0004
refractive index ([1]; 293.15 K): 1.40994 ± 0.0004
refractive index ([1]; 298.15 K): 1.40796 ± 0.0004
refractive index ([1]; 303.15 K): 1.40595 ± 0.0004
refractive index ([1]; 308.15 K): 1.40388 ± 0.0004
refractive index ([1]; 313.15 K): 1.40189 ± 0.0004
refractive index ([1]; 318.15 K): 1.39987 ± 0.0004
refractive index ([1]; 323.15 K): 1.39776 ± 0.0004
mass density ([2]; 288.15 K): 818.282 ± 0.24 kg/m3
mass density ([2]; 293.15 K): 814.635 ± 0.24 kg/m3
mass density ([2]; 298.15 K): 810.968 ± 0.24 kg/m3
mass density ([2]; 303.15 K): 807.278 ± 0.24 kg/m3
mass density ([2]; 308.15 K): 803.558 ± 0.24 kg/m3
mass density ([2]; 313.15 K): 799.817 ± 0.24 kg/m3
mass density ([2]; 318.15 K): 796.001 ± 0.24 kg/m3
mass density ([2]; 323.15 K): 792.166 ± 0.24 kg/m3

CCCO [propan-1-ol] + C1CCC(NC2CCCCC2)CC1
refractive index ([1]; 288.15 K): 1.38785 ± 0.00036
refractive index ([1]; 293.15 K): 1.38578 ± 0.00036
refractive index ([1]; 298.15 K): 1.38364 ± 0.00036
refractive index ([1]; 303.15 K): 1.38153 ± 0.00036
refractive index ([1]; 308.15 K): 1.37929 ± 0.00036
refractive index ([1]; 313.15 K): 1.37702 ± 0.00036
refractive index ([1]; 318.15 K): 1.37483 ± 0.00036
refractive index ([1]; 323.15 K): 1.37252 ± 0.00036
mass density ([2]; 288.15 K): 807.69 ± 0.15 kg/m3
mass density ([2]; 293.15 K): 803.703 ± 0.15 kg/m3
mass density ([2]; 298.15 K): 799.692 ± 0.15 kg/m3
mass density ([2]; 303.15 K): 795.65 ± 0.15 kg/m3
mass density ([2]; 308.15 K): 791.576 ± 0.15 kg/m3
mass density ([2]; 313.15 K): 787.466 ± 0.15 kg/m3
mass density ([2]; 318.15 K): 783.309 ± 0.15 kg/m3
mass density ([2]; 323.15 K): 779.095 ± 0.16 kg/m3

C1CCC(NC2CCCCC2)CC1 [N-cyclohexylcyclohexanamine]
refractive index ([3]; 288.15 K): 1.48636 ± 0.0004
refractive index ([3]; 293.15 K): 1.48416 ± 0.0004
refractive index ([3]; 298.15 K): 1.48198 ± 0.0004
refractive index ([3]; 303.15 K): 1.47978 ± 0.0004
refractive index ([3]; 308.15 K): 1.47761 ± 0.0004
refractive index ([3]; 313.15 K): 1.47562 ± 0.0004
refractive index ([3]; 318.15 K): 1.47347 ± 0.0004
refractive index ([3]; 323.15 K): 1.47134 ± 0.0004
mass density ([4]; 288.15 K): 915.498 ± 0.23 kg/m3
mass density ([4]; 293.15 K): 911.705 ± 0.23 kg/m3
mass density ([4]; 298.15 K): 907.923 ± 0.23 kg/m3
mass density ([4]; 303.15 K): 904.144 ± 0.23 kg/m3
mass density ([4]; 308.15 K): 900.372 ± 0.23 kg/m3
mass density ([4]; 313.15 K): 896.608 ± 0.23 kg/m3
mass density ([4]; 318.15 K): 892.847 ± 0.23 kg/m3
mass density ([4]; 323.15 K): 889.089 ± 0.23 kg/m3

CCCO [propan-1-ol]
refractive index ([3]; 288.15 K): 1.38785 ± 0.00036
refractive index ([3]; 293.15 K): 1.38578 ± 0.00036
refractive index ([3]; 298.15 K): 1.38364 ± 0.00036
refractive index ([3]; 303.15 K): 1.38153 ± 0.00036
refractive index ([3]; 308.15 K): 1.37929 ± 0.00036
refractive index ([3]; 313.15 K): 1.37702 ± 0.00036
refractive index ([3]; 318.15 K): 1.37483 ± 0.00036
refractive index ([3]; 323.15 K): 1.37252 ± 0.00036
mass density ([4]; 288.15 K): 807.69 ± 0.15 kg/m3
mass density ([4]; 293.15 K): 803.703 ± 0.15 kg/m3
mass density ([4]; 298.15 K): 799.692 ± 0.15 kg/m3
mass density ([4]; 303.15 K): 795.65 ± 0.15 kg/m3
mass density ([4]; 308.15 K): 791.576 ± 0.15 kg/m3
mass density ([4]; 313.15 K): 787.466 ± 0.15 kg/m3
mass density ([4]; 318.15 K): 783.309 ± 0.15 kg/m3
mass density ([4]; 323.15 K): 779.095 ± 0.16 kg/m3

CC(C)(C)O [2-methylpropan-2-ol]
refractive index ([3]; 303.15 K): 1.38222 ± 0.00035
refractive index ([3]; 308.15 K): 1.37947 ± 0.00035
refractive index ([3]; 313.15 K): 1.37667 ± 0.00035
refractive index ([3]; 318.15 K): 1.37384 ± 0.00035
refractive index ([3]; 323.15 K): 1.37097 ± 0.00035
mass density ([4]; 303.15 K): 775.412 ± 0.14 kg/m3
mass density ([4]; 308.15 K): 770.193 ± 0.15 kg/m3
mass density ([4]; 313.15 K): 764.884 ± 0.15 kg/m3
mass density ([4]; 318.15 K): 759.488 ± 0.15 kg/m3
mass density ([4]; 323.15 K): 754.015 ± 0.15 kg/m3

CCC(C)O (centres undefined) [butan-2-ol]
refractive index ([3]; 288.15 K): 1.39951 ± 0.0004
refractive index ([3]; 293.15 K): 1.39736 ± 0.0004
refractive index ([3]; 298.15 K): 1.39515 ± 0.0004
refractive index ([3]; 303.15 K): 1.39293 ± 0.0004
refractive index ([3]; 308.15 K): 1.39064 ± 0.0004
refractive index ([3]; 313.15 K): 1.38832 ± 0.0004
refractive index ([3]; 318.15 K): 1.38596 ± 0.0004
refractive index ([3]; 323.15 K): 1.38352 ± 0.0004
mass density ([4]; 288.15 K): 810.689 ± 0.24 kg/m3
mass density ([4]; 293.15 K): 806.646 ± 0.24 kg/m3
mass density ([4]; 298.15 K): 802.528 ± 0.24 kg/m3
mass density ([4]; 303.15 K): 798.326 ± 0.24 kg/m3
mass density ([4]; 308.15 K): 794.03 ± 0.24 kg/m3
mass density ([4]; 313.15 K): 789.632 ± 0.24 kg/m3
mass density ([4]; 318.15 K): 785.117 ± 0.24 kg/m3
mass density ([4]; 323.15 K): 780.515 ± 0.24 kg/m3
